These are literature values, as cited in article PMC12067266 (Proceedings of the National Academy of Sciences of the …, 2025).

This series relates to KCa3.1. To be noted: read-out: KCa3.1 IC50; ref [21]–[23], [49], [50].
Broadly, the IC50 is the concentration needed to halve the response being measured. `O=C1CSc2ccccc2N1Cc1cccc(C(F)(F)F)c1` [NS6180]: the IC50 was 9 nM.

With `NC(=O)C(c1ccccc1)(c1ccc(F)cc1)c1ccc(F)cc1` [Senicapoc], the IC50 was 11 nM.

On to `Clc1ccccc1C(c1ccccc1)(c1ccccc1)n1cccn1` [TRAM-34], for which the 50% inhibitory concentration (IC50) is […].
